According to patent US20230092163A1, “COMPOUNDS AND COMPOSITIONS FOR TREATING CONDITIONS ASSOCIATED WITH STING ACTIVITY” (IFM Due, Inc., priority 2019, published 2023):

Target: STING (Homo sapiens, UniProt Q86WV6, G230A/H232R/R293Q/R71H)
Assay: STING reporter assay: THP1-Dual KO-IFNAR2 cells stimulated with 2′3′cGAMP, luciferase reporter activity
Type: cell-based
Details: 15 μM 2′3′cGAMP, 24h, class symbols
Description: STING pathway activation by the compounds described herein were measured using THP1-Dual™ cells (KO-IFNAR2).
THP1-Dual™ KO-IFNAR2 Cells (obtained from invivogen) were maintained in RPMI, 10% FCS, 5 ml P/S, 2 mM L-glut, 10 mM Hepes, and 1 mM sodium pyruvate. Compounds were spotted in empty 384 well tissue culture plates (Greiner 781182) by Echo for a final concentration of 0.0017-100 μM. Cells were plated into the TC plates at 40 μL per well, 2×10E6 cells/mL. For activation with STING ligand, 2′3′cGAMP (MW 718.38, obtained from Invivogen), was prepared in Optimem media.
The following solutions were prepared for each 1×384 plate: • Solution A: 2 mL Optimem with one of the following stimuli: • 60 uL of 10 mM 2′3′cGAMP ->150 μM stock • Solution B: 2 mL Optimem with 60 μL Lipofectamine 2000->Incubate 5 min at RT
2 mL of solution A and 2 ml Solution B was mixed and incubated for 20 min at room temperature (RT). 20 uL of transfection solution (A+B) was added on top of the plated cells, with a final 2′3′cGAMP concentration of 15 μM. The plates were then centrifuged immediately at 340 g for 1 minute, after which they were incubated at 37° C., 5% CO2, >98% humidity for 24h. Luciferase reporter activity was then measured. EC50 values were calculated by using standard methods known in the art.
Luciferase reporter assay: 10 μL of supernatant from the assay was transferred to white 384-plate with flat bottom and squared wells. One pouch of QUANTI-Luc™ Plus was dissolved in 25 mL of water. 100 μL of QLC Stabilizer per 25 mL of QUANTI-Luc™ Plus solution was added. 50 μL of QUANTI-Luc™ Plus/QLC solution per well is then added. Luminescence is measured on a Platereader (e.g., Spectramax I3X (Molecular Devices GF3637001)).
Luciferase reporter activity was then measured. EC50 values were calculated by using standard methods known in the art.

Chain of STING (Q86WV6 whole entry R71H/G230A/H232R/R293Q): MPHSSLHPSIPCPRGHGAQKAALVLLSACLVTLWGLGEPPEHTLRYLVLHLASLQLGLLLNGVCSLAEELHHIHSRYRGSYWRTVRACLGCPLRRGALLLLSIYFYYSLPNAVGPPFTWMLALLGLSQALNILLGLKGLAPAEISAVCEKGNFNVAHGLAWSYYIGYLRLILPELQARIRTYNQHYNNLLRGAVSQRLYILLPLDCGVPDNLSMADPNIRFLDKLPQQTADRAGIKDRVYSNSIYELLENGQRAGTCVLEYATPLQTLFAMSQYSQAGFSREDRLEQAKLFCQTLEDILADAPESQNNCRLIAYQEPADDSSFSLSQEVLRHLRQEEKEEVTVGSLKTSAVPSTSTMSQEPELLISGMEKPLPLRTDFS

| SMILES | EC50 [µM] |
| --- | --- |
| O=C(NCCc1ccc(Br)cc1)Nc1ccc2cc[nH]c2c1 [Compound 208] | 0.2 to 1 |
| O=C(NCc1ccc(C(F)(F)F)c(Cl)c1)Nc1ccc2cc[nH]c2c1 [Compound 206] | 1 to 5 |
| O=C(NCCc1ncc(C(F)(F)F)cc1Cl)Nc1ccc2cc[nH]c2c1 [Compound 201] | 1 to 5 |
| O=C(Nc1ccc(C(F)(F)F)c(F)c1)Nc1ccc2cc[nH]c2c1 [Compound 253] | 0.04 to 0.2 |
| CC(C)c1ccc(-c2nnc(NC(=O)Nc3ccc4cc[nH]c4c3)s2)cc1 [Compound 182] | 0.2 to 1 |
| CN(C)S(=O)(=O)c1cccc(NC(=O)Nc2ccc3cc[nH]c3c2)c1 [Compound 198] | 5 to 100 |
| O=C(Nc1ccc(C(F)(F)F)cc1)Nc1cc(Cl)c2cc[nH]c2c1 [Compound 251] | 0.04 to 0.2 |
| O=C(Nc1ccc(Oc2c(F)cccc2F)cc1)Nc1ccc2cc[nH]c2c1 [Compound 160] | 1 to 5 |
| CCCCCCCCCCCCCCCCNC(=O)Nc1ccc2cc[nH]c2c1 [Compound 235] | 0.2 to 1 |
| O=C(NCc1ccc(Cl)c(C(F)(F)F)c1)Nc1ccc2cc[nH]c2c1 [Compound 207] | 1 to 5 |
| O=C(Nc1ccc2cc[nH]c2c1)Nc1ccc(C(F)(F)F)cn1 [Compound 269] | 0.2 to 1 |
| O=C(Nc1cccc(S(F)(F)(F)(F)F)c1)Nc1ccc2cc[nH]c2c1 [Compound 233] | 0.2 to 1 |
| C#Cc1ccc(NC(=O)Nc2ccc3[nH]ccc3c2)cc1 [Compound 151] | 5 to 100 |
| O=C(Nc1ccc(Cl)c(F)c1)Nc1ccc2cc[nH]c2c1 [Compound 226] | 0.2 to 1 |
| CCC(NC(=O)Nc1ccc2cc[nH]c2c1)c1cccc(C(F)(F)F)c1 (centres unmarked) [Compound 199] | 1 to 5 |
| CC(=O)n1ccc2ccc(NC(=O)Nc3ccc(C(F)(F)F)cc3)cc21 [Compound 257] | 1 to 5 |

Second part, the compound after the results:

| EC50 [µM] | SMILES |
| --- | --- |
| 1 to 5 | C1=C(c2ccc3ccc(Nc4ccc5cc[nH]c5c4)nc3c2)CCCC1 [Compound 606, 7-(cyclohex-1-en-1-yl)-N-(1H-indol-6-yl)quinolin-2-amine] |
| 0.2 to 1 | FC(F)(F)c1cc(Cl)c2ccc(Nc3ccc4cc[nH]c4c3)nc2c1 [Compound 564] |
| 0.2 to 1 | O=C(Nc1cnc(N2CC(F)(F)C2)c(F)c1)Nc1cc(Cl)c2cc[nH]c2c1 [Compound 516] |
| 0.2 to 1 | O=C(Nc1cnc(N2CC(F)(F)C2)c(F)c1)Nc1ccc2c(F)c[nH]c2c1 [Compound 531] |
| 0.2 to 1 | CC(NC(=O)Nc1cc(Cl)c2cc[nH]c2c1)c1cc(Cl)cc(C(F)(F)F)c1 (centres unmarked) [Compound 537] |
| 0.04 to 0.2 | O=C(Nc1ccc(C(F)(F)F)cc1)Nc1cc(Cl)c2c(F)c[nH]c2c1 [Compound 518] |
| 1 to 5 | FC(F)(F)c1ccc2ccc(Nc3ccc4cc[nH]c4c3)cc2n1 [Compound 579] |
| 1 to 5 | Cc1nc(Nc2ccc3cc[nH]c3c2)ccc1OC(C)C [Compound 571, N-[6-methyl-5-(propan-2-yloxy)pyridin-2-yl]-1H-indol-6-amine] |
| 0.2 to 1 | COc1cc(NC(=O)NCc2cc(Cl)cc(C(F)(F)F)c2)cc2[nH]ccc12 [Compound 503] |
| 1 to 5 | Fc1cnc(Nc2ccc3cc[nH]c3c2)cc1Nc1ccc2cc[nH]c2c1 [Compound 593, 5-fluoro-N2,N4-bis(1H-indol-6-yl)pyridine-2,4-diamine] |
| 5 to 100 | CCOc1ccc(Nc2ccc3cc[nH]c3c2)nc1C [Compound 594, N-(5-ethoxy-6-methylpyridin-2-yl)-1H-indol-6-amine] |
| 1 to 5 | CNC(=O)OCCc1cc(NC(=O)Nc2ccc(C(F)(F)F)cc2)cc2[nH]ccc12 [Compound 512] |
| 0.2 to 1 | Clc1ccc2ccc(Nc3ccc4cc[nH]c4c3)nc2c1 [Compound 589, 7-chloro-N-(1H-indol-6-yl)quinolin-2-amine] |
| 5 to 100 | Cc1cc2cc[nH]c2cc1Nc1ccc2ccc(C(F)(F)F)cc2n1 [Compound 580, N-(5-methyl-1H-indol-6-yl)-7-(trifluoromethyl)quinolin-2-amine] |
| 0.2 to 1 | Cc1cc(Nc2ccc3cc[nH]c3c2)nc(C(F)(F)F)c1 [Compound 578] |
| 0.2 to 1 | C[C@H](NC(=O)Nc1cc(Cl)c2cc[nH]c2c1)c1cc(Cl)cc(C(F)(F)F)c1 (single isomer, unassigned) [Compound 520] |
| 5 to 100 | CN(C)C(=O)c1cc(NC(=O)Nc2ccc(C(F)(F)F)cc2)cc2[nH]ccc12 [Compound 547] |
| 5 to 100 | CNC(=O)c1cc(NC(=O)Nc2ccc(C(F)(F)F)cc2)cc2[nH]ccc12 [Compound 543] |
| 1 to 5 | FC(F)(F)c1ccc2cnc(Nc3ccc4cc[nH]c4c3)cc2c1 [Compound 388] |
| 5 to 100 | CCOCc1ccc(Nc2ccc3cc[nH]c3c2)nc1 [Compound 412, N-(5-(ethoxymethyl)pyridin-2-yl)-1H-indol-6-amine] |
| 5 to 100 | FC(F)(F)Cc1ccc(Nc2ccc3cc[nH]c3c2)nc1 [Compound 408, N-(5-(2,2,2-trifluoroethyl)pyridin-2-yl)-1H-indol-6-amine] |
| 0.2 to 1 | CC(=O)n1cc(F)c2ccc(NC(=O)Nc3ccc(C(F)(F)F)cc3)cc21 [Compound 534, 1-(1-acetyl-3-fluoro-1H-indol-6-yl)-3-(4-(trifluoromethyl)phenyl)urea] |
| 5 to 100 | Cc1nc(Nc2ccc3cc[nH]c3c2)ccc1Cl [Compound 595, N-(5-chloro-6-methylpyridin-2-yl)-1H-indol-6-amine] |
| 1 to 5 | COc1ccc2ccc(Nc3ccc4cc[nH]c4c3)nc2c1 [Compound 587, N-(1H-indol-6-yl)-7-methoxyquinolin-2-amine] |

Same assay, conditions: 15 μM 2′3′cGAMP, 24h, numeric bounds

| SMILES | EC50 [µM] |
| --- | --- |
| CC(C)(C)n1cc(NC(=O)Nc2ccc3cc[nH]c3c2)cn1 [Compound 218] | > 30 |
| O=C(NCCc1cccc(Cl)c1)Nc1ccc2[nH]ccc2c1 [Compound 354] | > 30 |
| O=C(NCCCc1cncc(C(F)(F)F)c1)Nc1ccc2[nH]ccc2c1 [Compound 298] | > 30 |
| CCCCC1CCC(NC(=O)Nc2ccc3[nH]c(C)cc3c2)CC1 (centres unmarked) [Compound 375] | > 100 |
| CC(C)(C)OC(=O)N1CC(CCNC(=O)Nc2ccc3cc[nH]c3c2)C1 [Compound 178] | > 30 |
| CN(C(=O)Nc1ccc2cc[nH]c2c1)c1ccc(C(F)(F)F)cc1 [Compound 267] | > 67.1 |
| Cc1ccccc1NC(=O)Nc1ccc2cc[nH]c2c1 [Compound 231] | > 30 |
| CCCCC1CCC(NC(=O)Nc2ccc3cc(C)[nH]c3c2)CC1 (centres unmarked) [Compound 266] | > 100 |
| N#Cc1ccc(NC(=O)Nc2ccc3[nH]ccc3c2)cc1 [Compound 361] | > 30 |
| O=C(Nc1cnc2cc(C(F)(F)F)ccc2c1)Nc1ccc2[nH]ccc2c1 [Compound 285] | > 30 |
| O=C(NCC1(c2cccc(Cl)c2)CCOCC1)Nc1ccc2[nH]ccc2c1 [Compound 274] | > 30 |
| O=C(Nc1ccc2[nH]ccc2c1)N[C@@H]1C[C@H]1c1ccccc1 [Compound 326] | > 30 |
| CCOc1ccc(-c2cc(NC(=O)Nc3ccc4[nH]ccc4c3)on2)cc1 [Compound 297] | > 30 |
| O=C(Nc1ccc2cc[nH]c2c1)Nc1ccccc1F [Compound 230] | > 30 |
| O=C(Nc1ccc2[nH]ccc2c1)Nc1cc2ccc(C(F)(F)F)cn2n1 [Compound 299] | > 30 |
| Cn1cc(NC(=O)Nc2ccc3[nH]ccc3c2)cn1 [Compound 306] | > 30 |
| O=C(Nc1cccc(S(F)(F)(F)(F)F)c1)Nc1ccc2[nH]ccc2c1 [Compound 346] | > 30 |
| O=C(NCCc1ccccc1Br)Nc1ccc2[nH]ccc2c1 [Compound 304] | > 30 |
| CC(C)(C)n1cc(NC(=O)Nc2ccc3[nH]ccc3c2)cn1 [Compound 332] | > 30 |
| O=C(NCCc1ccc(OC(F)(F)F)cc1)Nc1ccc2[nH]ccc2c1 [Compound 321] | > 30 |
| CC(C)CCNC(=O)Nc1ccc2[nH]ccc2c1 [Compound 329] | > 30 |

Further lines, results first:

| EC50 [µM] | SMILES |
| --- | --- |
| > 30 | CC(O)c1ccnc(Nc2ccc3cc[nH]c3c2)c1 (centres unmarked) [Compound 395, 1-(2-((1H-indol-6-yl)amino)pyridin-4-yl)ethanol] |
| > 30 | c1cc2ccc(Nc3ccc(C4CC4)cn3)cc2[nH]1 [Compound 411, N-(5-cyclopropylpyridin-2-yl)-1H-indol-6-amine] |
| > 30 | O=C(Nc1ccc(N2CC(F)(F)C2)nc1)Nc1ccc2c(F)c[nH]c2c1 [Compound 517] |
| > 30 | N#Cc1cc(NC(=O)Nc2cnc(N3CC(F)(F)C3)c(F)c2)cc2[nH]ccc12 [Compound 511] |
| > 30 | N#Cc1c[nH]c2cc(NC(=O)Nc3cnc(N4CC(F)(F)C4)c(F)c3)ccc12 [Compound 530] |
| > 30 | CC(=O)c1ccc2ccc(Nc3ccc4cc[nH]c4c3)nc2c1 [Compound 575, 1-{2-[(1H-indol-6-yl)amino]quinolin-7-yl}ethan-1-one] |
| > 30 | CCc1ccnc(Nc2ccc3cc[nH]c3c2)c1 [Compound 392, N-(4-ethylpyridin-2-yl)-1H-indol-6-amine] |
